Assay results taken from PMC5051066, “Pharmacokinetics of calycopterin and xanthmicrol, two polymethoxylated hydroxyflavones with anti-angiogenic activities from Dracocephalum kotschyi Bioss” (DARU Journal of Pharmaceutical Sciences, 2016).
“Also recorded” adds a separate entry of the source.

Tests used:
[1] = Solubility in water based solvent systems (vehicle selection); type: physicochemical
Method: A number of solvents which were able to dissolve xanthomicrol and calycopterin were investigated as vehicles for the delivery of these compounds into the blood stream. DMSO was chosen as it is relatively benign in terms of toxicological effects (a number of drug formulations or medical devices containing DMSO are marketed e.g., RIMSO-50 from Bioniche Pharma, USA and Dolicur from Schering, Germany). Also, the volume required as vehicle (200 μL) was small compared to total blood volume in rat (about 20 mL) and would be unlikely to have an appreciable effect on pharmacokinetics of flavonoids being studied.

[2] = Predicted plasma concentration-time profiles from the two compartment models; conditions: rat, single I.V. dose of 30 mg/kg, predicted from two compartment model
Method: Our aim in this work was to find doses of these flavonoids which could produce such plasma levels over extended periods. […] The models generated, were used to predict the plasma concentration-time profiles for different doses of calycopterin and xanthomicrol (Fig. 7). After a single I.V. dose of 30 mg/kg, xanthomicrol plasma concentration would be greater than 500 ng/mL for more than 6 h while calycopterin’s plasma concentration would dip below 500 ng/mL 30 min after administration.
Fig. 7 Predicted plasma calycopterin (●) and xanthomicrol (○) concentration-time profiles after a single IV bolus dose of 30 mg/kg or either compound in the rat. The values were calculated based upon the two compartment models developed in this work

[3] = Pharmacokinetic study after i.v. administration in rats (online SPE HPLC of plasma, two-compartment model); type: in vivo, male Wistar rats; conditions: for t1/2 (biological half-life) / K12 (rate constant of transfer from the peripheral compartment into the central compartment) / K21 (rate constant of transfer from the central compartment into the peripheral compartment) / half-life / C0 / clearance / k el / Vd: i.v. bolus, 20 mg/kg; for t1/2 (biological half-life) / half-life / C0 / clearance / k el / Vd: plasma; for K12 (rate constant of transfer from the peripheral compartment into the central compartment) / K21 (rate constant of transfer from the central compartment into the peripheral compartment) / C0 / clearance / k el / Vd: two-compartment model; for half-life / C0 / clearance / k el / Vd: male, Wistar, rat, iv; for half-life: read-out: t1/2 (biological half-life) (converted); for C0: read-out: C0 (initial plasma concentration); for clearance: read-out: Cla (clearance rate of the central compartment) (converted); for k el: read-out: Kel (rate constant of elimination from the central compartment) (converted); for Vd: read-out: Vc (volume of distribution of the central compartment)
Method: Confirmation of calycopterin, xanthomicrol and circimaritin identity was carried out using HPLC analysis of purified compound compared to the material obtained from previous work and also IR spectroscopy. A HPLC method with online solid phase extraction was developed for the analysis of xanthomicrol and calycopterin in biological fluids (Fig. 1) using circimaritin as internal standard (IS). 100 μL of plasma and 10 μL of 500 μg/mL IS were mixed in a 2 mL microcentrifuge tube. 40 μL of 10 mg/mL ZnSO4 was added to the tube and the content was mixed. After addition of 200 μL acetonitrile, the tube was placed in an orbital shaker for 10 min. The samples were subsequently centrifuged at 14000 g for 10 min the supernatant was subjected to online extraction/HPLC analysis as follows:
At the start of every run, the sample injection valve and the sample extraction valve were switched to load position (Fig. 1). 250 μL of sample was injected into the sample loop of the sample injection valve. The valve was switched to the inject position which diverted the flow from the online SPE (solid phase extraction) solvent delivery pump (500 μL/min) through the sample loop which in turned carried the sample onto the online SPE column (3×15mm, ODS-2, 5 μm). After 2 min, the sample extraction valve was switched to inject position. This allowed the mobile phase from the analysis solvent delivery pump (1 mL/min) to wash any material retained by the online SPE system, onto the analytical column (4.6×150mm, ODS-2, 5 μm, Tracer Excell, Technochroma, Spain) for separation and measurement. The mobile phase pumped by online SPE solvent delivery pump consisted of acetonitrile:water (35:65) and the mobile phase pumped by the analysis solvent delivery pump was composed of acetonitrile:methanol:water:triethylamine (37:24:38.5:0.5). 16 min after the start of analysis, the mobile phase pumped by the analysis solvent delivery pump was switched to methanol:tetrahydrofurane:dichloromethane (80:10:10) for 3 min. This allowed for highly non-polar compounds retained by the SPE and analytical column to be flushed. Detection was at 263 nm.
All procedures involving animals were carried out after the approval and under the supervision of the Ethics Committee for Animal Expreiments of Iran University for Medical Sciences. In order to be able to withdraw blood samples at predefined time points during pharmacokinetic studies, femoral vein of male Wistar rats, in the weight range of 280 to 300 g, were catheterized, under anaesthesia, using the method described by Jespersen et al.. After the placement of the catheter, the animals were allowed to recover for 24 h, during which time, the rats were checked for signs of bleeding and the catheters were checked for patency.
Xanthomicrol or calycopterin was dissolved in 200 μL of dimethylsulfoxide (DMSO) and injected into the dorsal tail vein of rats. Just before drug injection (time zero) and at 1, 5, 10, 20, 60, 120 and 240 min after drug injection, 300 μL of blood were withdrawn via the femoral vein which had been catheterized previously. In order to prevent phlebotomy induced hypovolemia, 200 μL normal saline was injected via the femoral catheter after each blood sample withdrawal. Blood samples were centrifuged at 4 °C for 10 min at 4000 g. Plasma was collected and stored frozen at -80 °C until needed.
Pharmacokinetic parameters obtained from constructing the residual concentration verses time curve for these two-compartmental models are presented in Table 3. Rate constants for transfer between the central and peripheral compartments (K21and K12) and also the elimination process (Kel) were also calculated.

HUVEC cell = test system: HUVEC cell; set-up: method as in PMID 24895220; conditions: at 500 ng/mL; cited from earlier work
Balb/C mice [4] = assay: Toxicological study in mice: serum creatinin, ALT, AST (kidney and liver functions); type: in vivo; conditions: for Serum ALT / Serum AST / Serum Creatinin: mice, I.P.
Method: (§1) Toxicity studies were carried out using Balb/C mice in the 25-30 g weight range. Drug administration was via the I.P. methoud. Animals were assigned to five groups of three: one-Control groups which received no treatment, two-Vehicle control which received 60 μL of DMSO (dimethyl sulfoxide) for 6 days, 3- Test group one which received 30 mg/kg body weight xanthomicrol in 60 μL of DMSO per day, 4- Test group two which received 40 mg/kg body weight xanthomicrol on 60 μL of DMSO per day and 5- Test group three which received 50 mg/kg body weight xanthomicrol on 60 μL of DMSO per day. The animals were weighed and examined for changes in skin tone, signs of fur loss and changes in bowl function. On the seventh day, the animals were anaesthetized under an atmosphere of chloroform. Once fully anaesthetized, blood samples were collected from the heart and the animals were killed by cervical dislocation. Serum samples were analyzed for hepatic enzymes AST and ALT [16] and also for creatinin levels. Kidneys, liver, lung, intestines and stomach were removed from animals and placed in 10 % formalin solution for subsequent paraffin embedding, sectioning, staining and histological studies. Tissue sections were examined for fibrotic, inflammatory and vascular changes by a qualified pathologist.

Balb/C mice [5] = assay: Toxicological study in mice: body weight, mortality, behaviour, overt toxicity; type: in vivo; conditions: for toxic effects overall (behavioral, histological, biochemical): repeated administrations at administered doses (30, 40 and 50 mg/kg/day for six days)
Method: as §1

Balb/C mice [6] = assay: Toxicological study in mice: tissue histology; type: in vivo
Method: as §1

[7] = mice, 30, 40 or 50 mg/kg body weight
[8] = mice, 30, 40 and 50 mg/kg/day for six days
[9] = Test group 1 (30 mg/kg per day, I.P.), Lung/Liver/Heart/ Kidney, single animal
[10] = Test group 1 (30 mg/kg per day, I.P.), Small intestine/ Large intestine/ Gastric wall, single animals
[11] = Test group 2 (40 mg/kg per day, I.P.), Lung/Liver/Heart/ Kidney, single animals, listed as xanthimcrol, 40 mg/kg/day
[12] = Test group 2 (40 mg/kg per day, I.P.), Small intestine/ Large intestine/ Gastric wall, single animal
[13] = Test group 3 (50 mg/kg per day, I.P.), Lung/Liver/Heart/ Kidney, single animals
[14] = Test group 3 (50 mg/kg per day, I.P.), Lung/Liver/Heart/ Kidney, single animals, listed as xanthimcrol, 50 mg/kg/day
[15] = Test group 3 (50 mg/kg per day, I.P.), Small intestine/ Large intestine/ Gastric wall, single animal

COc1c(OC)c(O)c2c(=O)c(OC)c(-c3ccc(O)cc3)oc2c1OC [Calycopterin, calycopterin]
solubility in water based solvent systems [1]: do not dissolve in water based solvent systems
time after administration at which plasma concentration would dip below 500 ng/mL [2]: 30 min
volume of distribution of calycopterin relative to xanthomicrol ([3]; i.v.): about 8 times
t1/2 (biological half-life) [3]: 3.8 h
K12 (rate constant of transfer from the peripheral compartment into the central compartment) [3]: 1.39 h⁻¹
K21 (rate constant of transfer from the central compartment into the peripheral compartment) [3]: 0.52 h⁻¹
half-life [3]: ~240 min
C0 [3]: 312 ng/mL
clearance [3]: 280 mL/min
k el [3]: 7.22e-05 s⁻¹
Vd [3]: 63.9 L
effect on capillary-like tube formation (HUVEC cell): inhibited capillary-like tube formation

COc1c(OC)c(O)c2c(=O)cc(-c3ccc(O)cc3)oc2c1OC [Xanthomicrol, xanthomicrol]
difference in alanine transaminase (ALT) activity between control, vehicle and test groups (Balb/C mice [4]; [7]): no significant differences
difference in aspartic acid transaminase (AST) activity between control, vehicle and test groups (Balb/C mice [4]; [7]): no significant differences; also recorded: not significantly different
difference in serum creatinin content between control, vehicle and test groups (Balb/C mice [4]; [7]): no significant differences
Serum ALT (Balb/C mice [4]; 30 mg/kg per day for 6 days): 38 ± 8.8 IU/L
Serum AST (Balb/C mice [4]; 30 mg/kg per day for 6 days): 138 ± 37 IU/L
Serum ALT (Balb/C mice [4]; 40 mg/kg per day for 6 days): 22 ± 19 IU/L
Serum AST (Balb/C mice [4]; 40 mg/kg per day for 6 days): 130 ± 49 IU/L
Serum Creatinin (Balb/C mice [4]; 40 mg/kg per day for 6 days): 0.35 ± 0.036 mg/dL
Serum ALT (Balb/C mice [4]; 50 mg/kg per day for 6 days): 30 ± 3.0 IU/L
Serum AST (Balb/C mice [4]; 50 mg/kg per day for 6 days): 316 ± 163 IU/L
Serum Creatinin (Balb/C mice [4]; 50 mg/kg per day for 6 days): 0.39 ± 0.02 mg/dL
solubility in water based solvent systems [1]: do not dissolve in water based solvent systems
time for which plasma concentration would be greater than 500 ng/mL [2]: more than 6 h
t1/2 (biological half-life) [3]: 4.2 h
K12 (rate constant of transfer from the peripheral compartment into the central compartment) [3]: 1.88 h⁻¹
K21 (rate constant of transfer from the central compartment into the peripheral compartment) [3]: 0.46 h⁻¹
half-life [3]: ~240 min
C0 [3]: 2340 ng/mL
clearance [3]: 30 mL/min
k el [3]: 5.83e-05 s⁻¹
Vd [3]: 8.5 L
change in animal weights compared to control group (Balb/C mice [5]; [8]): no change in animal weights
motor or behavioral abnormalities (Balb/C mice [5]; [8]): no animal showed any signs of motor or behavioral abnormalities
toxic effects overall (behavioral, histological, biochemical) (Balb/C mice [5]; mice): did not appear to have toxic effects
toxic effects overall (behavioral, histological, biochemical) (Balb/C mice [5]; mice, listed as xanthomicrol): failed to show any behavioral, histological and biochemical adverse effects
weight of animals (Balb/C mice [5]; mice, xanthomicrol groups, control group 27.1 g ± 1.2): 27.7 ± 1.7 g
acute toxic effects (Balb/C mice [5]; mouse, in vivo): appears not to have acute toxic effects
Fibrosin (Balb/C mice [6]; [9]): Absent
Inflammation structural change (Balb/C mice [6]; [9]): Absent
Notes (histology) (Balb/C mice [6]; [9]): Normal
Vascular change (Balb/C mice [6]; [9]): None
Fibrosin (Balb/C mice [6]; [10]): Absent
Inflammation structural change (Balb/C mice [6]; [10]): Absent
Notes (histology) (Balb/C mice [6]; [10]): Normal
Vascular change (Balb/C mice [6]; [10]): None
Fibrosin (Balb/C mice [6]; Test group 2 (40 mg/kg per day, I.P.), Lung/Liver/Heart/ Kidney, single animals): Absent
Inflammation structural change (Balb/C mice [6]; [11]): Lymphocyte infilteration in lung sample, Subcapsular inflammation in liver sample; also recorded: Focal inflammation in lung tissue
Notes (histology) (Balb/C mice [6]; [11]): Normal; also recorded: Increased type II pneumocytes
Vascular change (Balb/C mice [6]; [11]): Hypermic; also recorded: Increased vascularization in lung sample
Fibrosin (Balb/C mice [6]; [12]): Absent
Inflammation structural change (Balb/C mice [6]; [12]): Absent
Notes (histology) (Balb/C mice [6]; [12]): Normal
Vascular change (Balb/C mice [6]; [12]): None
Fibrosin (Balb/C mice [6]; [13]): Absent
Vascular change (Balb/C mice [6]; [13]): None
Inflammation structural change (Balb/C mice [6]; [14]): Focal inflammation in lung sample; also recorded: Absent
Notes (histology) (Balb/C mice [6]; [14]): Increased type II pneumocytes; also recorded: Normal
Fibrosin (Balb/C mice [6]; [15]): Absent
Inflammation structural change (Balb/C mice [6]; [15]): Absent
Vascular change (Balb/C mice [6]; [15]): None
Histological examination of tissue samples compared to the control group (Balb/C mice [6]; [8]): absence of significant pathological change; also recorded: unable to find xenobiotic induced damage to vital organs
effect on capillary-like tube formation (HUVEC cell): inhibited capillary-like tube formation
